Data as given in patent US10266544B2, “Aryl substituted aminomethyl spectinomycin analogs as antibacterial agents” (ST. JUDE CHILDREN'S RESEARCH HOSPITAL, INC., priority 2013, dated 2019).
Where a name gives a salt, the structure may show the parent alone. Read-outs that look alike come from different tables or passages of the source.

What was measured:
Assay type in all cases: cell-based
[1] = tested on: Burkholderia cepacia (ATCC 25416); experiment: MIC determination, microbroth dilution; details: Burkholderia cepacia
[2] = tested on: Legionella pneumophila (ATCC 33153); experiment: microbe, parasite or virus in culture; details: ATCC33153, 72 h, read-out: Zone of inhibition L.p.
Bacillus anthracis = experiment: microbe, parasite or virus in culture; details: read-out: MIC B.a.
E. coli K12 ΔtolC = experiment: microbe, parasite or virus in culture; details: Escherichia coli, read-out: MIC E.c. Δtolc
Yersinia pestis = experiment: microbe, parasite or virus in culture; details: read-out: MIC Y.p.
[3] = tested on: acinetobacter baumannii (ATCC 19606); experiment: MIC determination, microbroth dilution; details: ATCC19606
[4] = tested on: Streptococcus pneumoniae (R6); experiment: MIC determination, microbroth dilution; details: read-out: MIC S. pn.
[5] = tested on: Staphylococcus aureus (ATCC 29213); experiment: MIC determination, microbroth dilution; details: ATCC29213; Staphylococcus aureus (ATCC 29213); read-out: MIC S.a.
[6] = tested on: Stenotrophomonas maltophilia (ATCC 13637); experiment: MIC determination, microbroth dilution
[7] = tested on: Neisseria gonorrhoeae (ATCC 49226); experiment: Disc diffusion assay; details: ATCC49226, 4 μg per disc, read-out: Zone of inhibition N.g.
Listeria monocytogenes = experiment: MIC determination (Table 6)
[8] = tested on: Neisseria meningitides (ATCC 13077); experiment: Disc diffusion assay; details: ATCC13077, 4 μg per disc, read-out: Zone of inhibition N.m.
[9] = tested on: Haemophilus influenza (ATCC 49247); experiment: microbe, parasite or virus in culture; details: ATCC49247; Haemophilus influenza; 4 μg per disc; range of at least two experiments; read-out: Zone of inhibition H.i.
[10] = tested on: Proteus mirabilis (ATCC 25933); experiment: MIC determination, microbroth dilution; details: ATCC25933
[11] = tested on: Streptococcus pyogenes (ATCC 700294); experiment: MIC determination, microbroth dilution
[12] = tested on: Pseudomonas aeruginosa (PA01); experiment: MIC determination, microbroth dilution
[13] = tested on: Bacillus subtilis (ATCC 23857); experiment: MIC determination, microbroth dilution; details: ATCC23857; Bacillus subtilis (ATCC 23857); read-out: MIC B.s.
[14] = tested on: M. tuberculosis clinical isolates; experiment: microbe, parasite or virus in culture; details: Mycobacterium tuberculosis, H37RV, read-out: MIC H37Rv
[15] = tested on: Escherichia coli (ATCC 700926); experiment: MIC determination, microbroth dilution; details: ATCC700926; Escherichia coli (ATCC 700926); read-out: MIC E.c.
[16] = tested on: Neisseria gonorrhoeae (ATCC 49226); experiment: Agar MIC determination (Alamar Blue); details: ATCC49226, agar MIC, read-out: MIC N.g.
[17] = tested on: Klebsiella pneumoniae (ATCC 33495); experiment: MIC determination, microbroth dilution; details: ATCC33495
Moraxella catarrhalis = experiment: MIC determination (Table 6)
[18] = tested on: MRSA, Staphylococcus aureus (NRS70); experiment: MIC determination, microbroth dilution; details: Staphylococcus aureus (NRS70); read-out: MIC MRSA
[19] = tested on: Proteus vulgaris (ATCC 33420); experiment: MIC determination, microbroth dilution; details: ATCC33420
[20] = tested on: Enterococcus faecalis (ATCC 33186); experiment: MIC determination, microbroth dilution; details: ATCC33186; Enterococcus faecalis (ATCC 33186); read-out: MIC E.f.
[21] = tested on: Bacillus anthracis, Sterne 34F2; experiment: microbe, parasite or virus in culture; details: STERNE34F2, read-out: MIC B.a.
[22] = ATCC25416, read-out: MIC B.c., Burkholderia cepacia (ATCC 25416)
[23] = ATCC25416, read-out: MIC B.c., Burkholderia cepacia, Table 6
[24] = Stenotrophomonas maltophilia, ATCC13637, read-out: MIC S.m.
[25] = ATCC13637, Stenotrophomonas maltophilia (ATCC 13637), read-out: MIC S.m.
[26] = ATCC700294, Streptococcus pyogenes (ATCC 700294), read-out: MIC S. py.

| SMILES | MIC [1, 22] | MIC [1, 23] | zone of inhibition at 4 µg/disc [2] | MIC (Bacillus anthracis) | MIC (E. coli K12 ΔtolC) | MIC [3] | MIC [5] | zone of inhibition at 4 µg/disc [7] | MIC (Listeria monocytogenes) | zone of inhibition at 4 µg/disc [8] | zone of inhibition at 4 µg/disc [9] | MIC [10] | MIC [12] | MIC [13] | MIC [14] | MIC [15] | MIC [16] | MIC [17] | MIC (Moraxella catarrhalis) | MIC [18] | further results |
| --- | --- | --- | --- | --- | --- | --- | --- | --- | --- | --- | --- | --- | --- | --- | --- | --- | --- | --- | --- | --- | --- |
| CN[C@@H]1[C@H](O)[C@H](NC)[C@H]2O[C@]3(O)[C@H](O[C@@H]2[C@H]1O)O[C@H](C)C[C@@]3(O)CNCc1ccccn1 [compound 16, 3′-(R)-3′-(2-pyridinylmethylaminomethyl)dihydrospectinomycin Tetrahydrobromide] | > 200 µg/mL | > 200 µg/mL | 34 mm | 50 µg/mL | 50 µg/mL | > 200 µg/mL | 100 to 200 µg/mL | 6 mm | 25 µg/mL | 13 mm | 7 mm | > 200 µg/mL | > 200 µg/mL | 50 µg/mL | 12.5 µg/mL | 100 to 200 µg/mL | ≥ 200 µg/mL | 200 µg/mL | 12.5 µg/mL | > 200 µg/mL | MIC (Yersinia pestis): 100 µg/mL; MIC ([4]; Streptococcus pneumoniae): 12.5 µg/mL; MIC [6, 24]: 12.5 to 25 µg/mL; MIC ([11]; Streptococcus pyogenes, ATCC700294, read-out: MIC S. py.): 12.5 to 25 µg/mL; MIC [19]: > 200 µg/mL; MIC [20]: 100 µg/mL; MIC [21]: 50 µg/mL |
| CN[C@@H]1[C@H](O)[C@H](NC)[C@H]2O[C@]3(O)[C@H](O[C@@H]2[C@H]1O)O[C@H](C)C[C@@]3(O)CNCc1ccc(C(F)(F)F)cc1 [compound 5, 3′-(R)-3′-[(4-trifluoromethyl)benzylaminomethyl)]dihydrospectinomycin Trihydrochloride] | 100 µg/mL | 100 µg/mL | 27 to 28 mm | 25 to 50 µg/mL | 6.3 to 12.5 µg/mL | ≥ 200 µg/mL | 50 µg/mL | 18 mm | 12.5 µg/mL | 21 mm | 17 to 18 mm | > 200 µg/mL | 200 µg/mL | 6.3 µg/mL | 25 µg/mL | 50 µg/mL | 100 µg/mL | 100 µg/mL | 3.1 to 6.3 µg/mL | 25 µg/mL | MIC ([4]; Streptococcus pneumoniae (R6)): 1.6 µg/mL; MIC [6, 25]: 25 µg/mL; MIC [11, 26]: 1.6 µg/mL; MIC [19]: > 200 µg/mL; MIC [20]: 12.5 to 25 µg/mL; MIC [21]: 25 to 50 µg/mL |
| CN[C@@H]1[C@H](O)[C@H](NC)[C@H]2O[C@]3(O)[C@H](O[C@@H]2[C@H]1O)O[C@H](C)C[C@@]3(O)CNCc1ccccc1F [compound 14, 3′-(R)-3′-[(2-fluoro)benzylaminomethyl)]dihydrospectinomycin Trihydrochloride] | 100 to 200 µg/mL | 100 to 200 µg/mL | 36 mm | 50 to 100 µg/mL | 25 µg/mL | > 200 µg/mL | 200 µg/mL | 18 mm | 25 µg/mL | 19 mm | 11 to 12 mm | > 200 µg/mL | ≥ 200 µg/mL | 6.3 µg/mL | 50 µg/mL | 50 µg/mL | 12.5 to 25 µg/mL | ≥ 200 µg/mL | 1.6 µg/mL | ≥ 200 µg/mL | MIC (Yersinia pestis): > 200 µg/mL; MIC ([4]; Streptococcus pneumoniae (R6)): 3.1 to 6.3 µg/mL; MIC [6, 25]: 12.5 to 25 µg/mL; MIC [11, 26]: 3.1 µg/mL; MIC [19]: 100 µg/mL; MIC [20]: 50 µg/mL; MIC [21]: 50 to 100 µg/mL |
| CN[C@@H]1[C@H](O)[C@H](NC)[C@H]2O[C@]3(O)[C@H](O[C@@H]2[C@H]1O)O[C@H](C)C[C@@]3(O)CNCc1ccncc1 [compound 9, 3′-(R)-3′-(4-pyridinylmethylaminomethyl)dihydrospectinomycin Tetrahydrobromide] | > 200 µg/mL | > 200 µg/mL | 28 mm | 100 to 200 µg/mL | 12.5 µg/mL | ≥ 200 µg/mL | ≥ 200 µg/mL | 6 mm | 100 µg/mL | 6 mm | 8 mm | > 200 µg/mL | ≥ 200 µg/mL | 200 µg/mL | 200 µg/mL | 50 µg/mL | ≥ 200 µg/mL | > 200 µg/mL | 12.5 µg/mL | ≥ 200 µg/mL | MIC ([4]; Streptococcus pneumoniae (R6)): 25 to 50 µg/mL; MIC [6, 25]: 200 µg/mL; MIC [11, 26]: 25 to 50 µg/mL; MIC [19]: > 200 µg/mL; MIC [20]: > 200 µg/mL; MIC [21]: 100 to 200 µg/mL |
| CN[C@@H]1[C@H](O)[C@H](NC)[C@H]2O[C@]3(O)[C@H](O[C@@H]2[C@H]1O)O[C@H](C)C[C@@]3(O)CNCc1ccco1 [compound 8, 3′-(R)-3′-(2-furanylmethylaminomethyl)dihydrospectinomycin Trihydrochloride] | ≥ 200 µg/mL | ≥ 200 µg/mL | 41 mm | 100 µg/mL | 6.3 to 12.5 µg/mL | ≥ 200 µg/mL | 50 µg/mL | 8 mm | 25 µg/mL | 10 mm | 9 mm | > 200 µg/mL | 200 µg/mL | 12.5 µg/mL | 25 µg/mL | 50 µg/mL | 50 µg/mL | 200 µg/mL | 6.3 µg/mL | 200 µg/mL | MIC ([4]; Streptococcus pneumoniae (R6)): 12.5 µg/mL; MIC [6, 24]: 6.3 to 12.5 µg/mL; MIC [11, 26]: 12.5 to 25 µg/mL; MIC [19]: > 200 µg/mL; MIC [20]: 50 µg/mL; MIC [21]: 50 µg/mL |
